What is called Kd is the concentration at which binding is half-saturated.

Assay [1] addresses T1, GPX4 (Homo sapiens, UniProt P36969, U73C).
T1 sequence (P36969 33-197 U73C): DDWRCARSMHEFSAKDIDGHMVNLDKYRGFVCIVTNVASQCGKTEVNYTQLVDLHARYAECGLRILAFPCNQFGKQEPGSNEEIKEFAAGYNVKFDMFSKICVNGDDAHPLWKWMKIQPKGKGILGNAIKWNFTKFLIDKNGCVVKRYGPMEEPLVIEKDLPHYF
Briefly: Microscale thermophoresis (MST) binding to GPX4. The settings on record: Table 1. The text has this: (§1) Therefore, we applied a strategy of computer-facilitated design, based on MD simulation (Desmond) and Glide docking (Schrödinger Suite), and experimental high-throughput screening of a lead-optimized compound library of 10,000 compounds (FIGS. 6A-6E). All candidates were first evaluated by thermal denaturation assay and microscale thermophoresis (MST) to validate binding to GPX4 (Table 1). Surface plasmon resonance (SPR) and isothermal titration calorimetry (ITC) were then applied to precisely measure their binding kinetics and affinities, while ^1H-^15N heteronuclear single-quantum coherence (HSQC) NMR spectroscopy informed us of binding sites. We optimized two GPX4-specific activity assays to examine enzymatic inhibitory effects of hit compounds—LC-MS-based substrate/product monitoring and an NADPH-coupled assay. […] Some L880 analogues were also synthesized and tested (Table 2).
On the technique in general: Microscale thermophoresis detects binding through changes in fluorescence in a small temperature gradient.

In assay [2] the target is T1, GPX4. In words: Surface plasmon resonance (SPR). The assay is classed as binding. The settings on record: Table 1.
From the text: as §1, with “These x-ray structures enabled further optimization of current inhibitors and the design of novel inhibitors targeting various binding sites on GPX4. Therefore,” for “Therefore,”
On the technique in general: In SPR one partner is held on a chip, and binding of the other changes the refractive index at the surface.

For assay [3], the target named is T2, GPX4^U46C (Homo sapiens, UniProt P36969, U73C).
T2 construct: His6 (N, cleaved yes); made in house; host or cells: E. coli BL21-Gold (DE3), M9 minimal medium with 15NH4Cl
T2 sequence (P36969 33-197 U73C): T1 sequence (P36969 33-197 U73C)
Briefly: Thermal shift assay (screen of LOC library). The assay is classed as binding. How it is done: To fully utilize the versatility shown by the […] site to accommodate structurally diverse compounds, we applied thermal shift assay to screen 9,719 compounds in the Lead-Optimized-Compound (LOC) library for in vitro binders of GPX4^U46C, which would shift the melting temperature of GPX4^U46C (|ΔTm|>2° C., FIG. 12D) (Kaplan et al. 2015).
Since the binding of small molecules may alter the thermostability of protein, we applied thermal shift assay to screen the LOC library, which determined binding of ligand from the change of the unfolding transition temperature (ΔTm) obtained in the presence of ligands relative to that obtained in the absence of ligands (Kaplan et al. 2015; Lo et al. 2004). For higher throughput purpose, we adapted the assay on 384-well PCR plate. With the assistance of Biomek Automated Liquid Handler (Beckman), 2 μl 10 mM stock solution (in 100% DMSO) of the each compound was transferred from 384-well library plates to 38 μl FPLC buffer (100 mM Tris pH 8.0, 300 mM NaCl, 3 mM TCEP) and mixed in each well of a 384-well mother plate. The compound solution was then dispensed, 12 μl per well, into three 384-well PCR plates. GPX4^U46C protein and Sypro orange were manually added to the plate, with the final concentrations of 5 μM and 5×, respectively, to make a volume of 20 μl per well right before thermal shift analysis of the specific plate. The thermal shift assay was performed on the ViiA 7 Real-Time PCR system (Thermo Fisher) with the thermal protocol: 25° for 15 s, Increase temp to 99° at a rate of 0.05°/sec, 99° for 15 sec. The fluorescence was recorded and analyzed by Protein Thermal Shift™ software. The mean |ΔTm| value for the biological triplicates were calculated and used for hit identification.

The target of assay [4] is T2, GPX4^U46C. In words: Co-crystal structure of GPX4^U46C with inhibitor. The assay is classed as binding. How it is done: GPX4^U46C was pre-incubated with the covalent inhibitors before crystallization using the following specifically optimized condition.
RSL3 and ML162 condition: 50 μM GPX4^U46C incubated with 150 μM RSL3 or ML162 in the reaction buffer (20 mM Tris pH 9.0, 100 mM NaCl, 3 mM TCEP, 1.5% DMSO) at 15° C. for 1 hour before transferring to 4° C. overnight. CDS9 condition: 25 μM GPX4^U46C incubated with 2 mM CDS9 in the reaction buffer (100 mM Tris pH 9.0, 300 mM NaCl, 1 mM TCEP, 2% DMSO) at 37° C. for 2 hours before transferring to 4° C. overnight. TMT10 condition: 25 μM GPX4^U46C incubated with 2 mM TMT10 in the reaction buffer (100 mM Tris pH 9.0, 300 mM NaCl, 2% glycerol, 2% DMSO) at 37° C. for 4 hours before transferring to 4° C. overnight. MAC-5576 condition: 50 μM GPX4^U46C protein was incubated with 500 μM MAC-5576 in the reaction buffer (100 mM Tris pH 9.0, 300 mM NaCl, and 3 mM TCEP, 5% DMSO) at RT for 1 hour before transferring to 4° C. overnight.
After confirmation of covalent binding using intact protein MALDI MS analysis, the protein-inhibitor complex were exchanged into crystallization buffer (10 mM Tris pH 8.0, 5 mM TCEP) and concentrated to 5 mg/ml.

For assay [5], the target named is T2, GPX4^U46C. Briefly: Inhibition of the activity of purified GPX4^U46C protein (NADPH-coupled). Conditions: 20 μM RSL3 vs DMSO. The assay is classed as biochemical. How it is done:
Similar to the determination of cellular GPX4-specific activity, by coupling the oxidation of NADPH to NADP+ by oxidized glutathione produced by GPX4 in the presence of glutathione reductase, GPX4^U46C activity was assessed by measuring the decrease in NADPH (absorbance at 340 nm). GPX4 reaction buffer was prepared by adding 0.05 U/mL glutathione reductase, 210 μM GSH, 250 μM NADPH, 50 μM Cumene-OOH into 50 mM Tris HCl, pH 8.0, 0.5 mM EDTA. 15 μM His-tagged-GPX4^U46C pre-incubated with DMSO (vehicle) or 20 μM RSL3 was added to the GPX4 reaction buffer and the absorbance at 340 nm was monitored for the following 10 min. Results were quantified using GraphPad Prism 9.

As to `COc1cccc2[nH]c(C(=O)n3ccnc3)cc12` [LOC1886], the MST entry on GPX4 [1] is recorded as “positive”. On GPX4 [1] (read-out: MST Kd), the Kd amounted to 100 µM. Moreover, at GPX4 [2], the SPR result was “positive”. At GPX4^U46C [3] (Table 1), the Thermal shift result is “positive”. Besides, the “|ΔTm|” value on GPX4^U46C [3] (thermal shift screening top hit) was determined as 3 °C.

Regarding `COC(=O)c1ccc([C@@H]2c3[nH]c4ccccc4c3C[C@@H](C(=O)OC)N2C(=O)CCl)cc1` [RSL3, (1S, 3R)-RSL3], the “binding site in co-crystal structure” value at GPX4^U46C [4] is recorded as “bind to cys66”. Further, the “enzymatic activity of GPX4^U46C after incubation” value at GPX4^U46C [5] was “inhibited the capability of GPX4 to reduce phospholipid hydroperoxides”.

These data come from US20230167058A1, “GPX4 COMPOUNDS AND COMPOSITIONS AND METHODS OF TREATMENT USING SAME” (THE TRUSTEES OF COLUMBIA UNIVERSITY IN THE CITY OF NEW YORK, priority 2020, published 2023).
